These results are taken from US11236087B2, “Highly active pyrazolo-piperidine substituted indole-2-carboxamides active against the hepatitis B virus (HBV)” (AiCuris GmbH & Co. KG, priority 2017, dated 2022).

Like-named read-outs stand apart in the source and are kept apart here.

For series [1], the system named is HBV. The experiment in a line: Determination of HBV DNA from the supernatants of HepAD38 cells (anti-HBV activity). It counts as cell-based, hepatitis B virus. Particulars: Hepatitis B virus, read-out: Cell Activity (EC50). The procedure, abridged: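 Supernatant viral DNA was measured by LightCycler qPCR, calibrated with pCH-9/3091 plasmid, 6 days after tetracycline-free HepAD38 cultures received half-log serial compound dilutions; untreated and tetracycline-treated cells served as controls; EC50 was fitted by non-linear regression.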

The target of series [2] is T1, HBV core protein (UniProt P03146).
T1 construct: fused on or other part: BODIPY-FL maleimide label on the C-terminal Cys150
T1 sequence (P03146 whole entry, looked up, the tested form may be a part): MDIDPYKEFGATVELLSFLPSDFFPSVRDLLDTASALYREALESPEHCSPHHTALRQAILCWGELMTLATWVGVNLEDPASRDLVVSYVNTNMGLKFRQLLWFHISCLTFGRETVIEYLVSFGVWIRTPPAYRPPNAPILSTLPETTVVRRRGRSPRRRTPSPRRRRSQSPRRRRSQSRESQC
Description: Biochemical capsid assembly assay (fluorescence quenching). Also on record: species or system hepatitis B virus. The settings on record: read-out: Assembly Activity (IC50); BODIPY-FL labelled core protein, 300 μM NaCl, read 6 min after start. As to the method: Biochemical Capsid Assembly Assay
The screening for assembly effector activity was done based on a fluorescence quenching assay published by Zlotnick et al. (2007). The C-terminal truncated core protein containing 149 amino acids of the N-terminal assembly domain fused to a unique cysteine residue at position 150 and was expressed in E. coli using the pET expression system (Merck Chemicals, Darmstadt). Purification of core dimer protein was performed using a sequence of size exclusion chromatography steps. In brief, the cell pellet from 1 L BL21 (DE3) Rosetta2 culture expressing the coding sequence of core protein cloned NdeI/XhoI into expression plasmid pET21b was treated for 1 h on ice with a native lysis buffer (Qproteome Bacterial Protein Prep Kit; Qiagen, Hilden). After a centrifugation step the supernatant was precipitated during 2 h stirring on ice with 0.23 g/ml of solid ammonium sulfate. Following further centrifugation the resulting pellet was resolved in buffer A (100 mM Tris, pH 7.5; 100 mM NaCl; 2 mM DTT) and was subsequently loaded onto a buffer A equilibrated CaptoCore 700 column (GE HealthCare, Frankfurt). The column flow through containing the assembled HBV capsid was dialyzed against buffer N (50 mM NaHCO3 pH 9.6; 5 mM DTT) before urea was added to a final concentration of 3M to dissociate the capsid into core dimers for 1.5 h on ice. The protein solution was then loaded onto a 1 L Sephacryl S300 column. After elution with buffer N core dimer containing fractions were identified by SDS-PAGE and subsequently pooled and dialyzed against 50 mM HEPES pH 7.5; […]. To improve the assembly capacity of the purified core dimers a second round of assembly and disassembly starting with the addition of 5 M NaCl and including the size exclusion chromatography steps described above was performed. From the last chromatography step core dimer containing fractions were pooled and stored in aliquots at concentrations between 1.5 to 2.0 mg/ml at −80° C.
Immediately before labelling the core protein was reduced by adding freshly prepared DTT in a final concentration of 20 mM. After 40 min incubation on ice storage buffer and DTT was removed using a Sephadex G-25 column (GE HealthCare, Frankfurt) and 50 mM HEPES, pH 7.5. For labelling 1.6 mg/ml core protein was incubated at 4° C. and darkness overnight with BODIPY-FL maleimide (Invitrogen, Karlsruhe) in a final concentration of 1 mM. After labelling the free dye was removed by an additional desalting step using a Sephadex G-25 column. Labelled core dimers were stored in aliquots at 4° C. In the dimeric state the fluorescence signal of the labelled core protein is high and is quenched during the assembly of the core dimers to high molecular capsid structures. The screening assay was performed in black 384 well microtiter plates in a total assay volume of 10 μl using 50 mM HEPES pH 7.5 and 1.0 to 2.0 μM labelled core protein. Each screening compound was added in 8 different concentrations using a 0.5 log-unit serial dilution starting at a final concentration of 100 μM, 31.6 μM or 10 μM, In any case the DMSO concentration over the entire microtiter plate was 0.5%. The assembly reaction was started by the injection of NaCl to a final concentration of […] which induces the assembly process to approximately 25% of the maximal quenched signal. 6 min after starting the reaction the fluorescence signal was measured using a Clariostar plate reader (BMG Labtech, Ortenberg) with an excitation of 477 nm and an emission of 525 nm. As 100% and 0% assembly control HEPES buffer containing 2.5 M and 0 M NaCl was used. Experiments were performed thrice in triplicates. EC50 values were calculated by non-linear regression analysis using the Graph Pad Prism 6 software (GraphPad Software, La Jolla, USA).

A short description of series [3]: Cell viability assay (AlamarBlue) in HepAD38 cells. The settings on record: human.
[4] abbreviates: 144 h, HBV DNA in HepAD38 supernatant, day 6, qPCR.

For the compound `O=C(c1cc2ccccc2[nH]1)N1CCc2[nH]nc(C(=O)N3CC(O)C3)c2C1` [Example 40, 1-[5-(1H-indole-2-carbonyl)-1H,4H,5H,6H,7H-pyrazolo[4,3-c]pyridine-3-carbonyl]azetidin-3-ol], the EC50 in series [1] (setting [4]) lay within 1 to 25 µM. For the same compound, the IC50 in series [2] was less than 5 µM. The compound also came in with a CC50 at 6 days in series [3] greater than 100 µM.

With `CC(O)CN(C)C(=O)c1n[nH]c2c1CN(C(=O)c1cc3ccccc3[nH]1)CC2` (stereo not drawn) [Example 41, N-(2-hydroxypropyl)-5-(1H-indole-2-carbonyl)-N-methyl-1H,4H,5H,6H,7H-pyrazolo[4,3-]pyridine-3-carboxamide], the EC50 in series [1] (setting [4]) is less than 1 µM. Also, the IC50 in series [2] is less than 5 µM. Further, the CC50 at 6 days in series [3] was greater than 100 µM.

On to `CC(CO)N(C)C(=O)c1n[nH]c2c1CN(C(=O)c1cc3ccccc3[nH]1)CC2` (stereo not drawn) [Example 42, N-(1-hydroxypropan-2-yl)-5-(1H-indole-2-carbonyl)-N-methyl-1H,4H,5H,6H,7H-pyrazolo[4,3-c]pyridine-3-carboxamide], for which the EC50 in series [1] (setting [4]) fell in the range of 1 to 25 µM. Moreover, the 50% inhibitory concentration (IC50) in series [2] was in the range of 5 to 10 µM. The same compound had a CC50 at 6 days in series [3] greater than 100 µM.

Consider `CN(CC(C)(C)O)C(=O)c1n[nH]c2c1CN(C(=O)c1cc3ccccc3[nH]1)CC2` [Example 43, N-(2-hydroxy-2-methylpropyl)-5-(1H-indole-2-carbonyl)-N-methyl-1H,4H,5H,6H,7H-pyrazolo[4,3-c]pyridine-3-carboxamide], for which the EC50 in series [1] (setting [4]) is less than 1 µM. Moreover, the IC50 in series [2] fell in the range of 5 to 10 µM. Moreover, the CC50 at 6 days in series [3] is greater than 32 µM.

Regarding `O=C(c1cc2ccccc2[nH]1)N1CCc2[nH]nc(C(=O)N3CC(CCO)C3)c2C1` [Example 44, 2-{1-[5-(1H-indole-2-carbonyl)-1H,4H,5H,6H,7H-pyrazolo[4,3-c]pyridine-3-carbonyl]azetidin-3-yl}ethan-1-ol], in series [1] (setting [4]), the EC50 was 1 to 25 µM. In series [2], the IC50 is less than 100 µM. In series [3], the CC50 at 6 days was greater than 100 µM.

Regarding `O=C(c1cc2ccccc2[nH]1)N1CCc2[nH]nc(C(=O)N3CC(CO)C3)c2C1` [Example 45, {1-[5-(1H-indole-2-carbonyl)-1H,4H,5H,6H,7H-pyrazolo[4,3-c]pyridine-3-carbonyl]azetidin-3-yl}methanol], in series [1] (setting [4]), the EC50 was 1 to 25 µM. Besides, the IC50 in series [2] was less than 100 µM. The same compound returned a CC50 at 6 days in series [3] greater than 100 µM.

For the compound `O=C(c1cc2c(Cl)cc(F)cc2[nH]1)N1CCc2[nH]nc(-c3cscn3)c2C1` [Example 46, 4-chloro-6-fluoro-2-[3-(1,3-thiazol-4-yl)-1H,4H,5H,6H,7H-pyrazolo[4,3-c]pyridine-5-carbonyl]-1H-indole], the EC50 in series [1] (setting [4]) was less than 1 µM. Besides, in series [2], the concentration for half-maximal inhibition (IC50) was less than 5 µM. The same compound gave a CC50 at 6 days in series [3] greater than 100 µM.

In the case of `O=C(c1cc2ccccc2[nH]1)N1CCc2[nH]nc(-c3cscn3)c2C1` [Example 47, 2-[3-(1,3-thiazol-4-yl)-1H,4H,5H,6H,7H-pyrazolo[4,3-c]pyridine-5-carbonyl]-1H-indole], the EC50 in series [1] (setting [4]) is less than 1 µM. Besides, in series [2], the IC50 is less than 5 µM. Further, in series [3], the CC50 at 6 days was greater than 100 µM.

As to `CC(C)[C@H](N)C(=O)OCCN(C)C(=O)c1n[nH]c2c1CN(C(=O)c1cc3ccccc3[nH]1)CC2` [Example 48, 2-{1-[5-(1H-indole-2-carbonyl)-1H,4H,5H,6H,7H-pyrazolo[4,3-c]pyridin-3-yl]-N-methylformamido}ethyl (2S)-2-amino-3-methylbutanoate], in series [1] (setting [4]), the EC50 is less than 1 µM. In series [2], the IC50 was less than 5 µM. The same compound registered a CC50 at 6 days in series [3] greater than 32 µM.

For the compound `CC(O)c1cc(F)cc2[nH]c(C(=O)N3CCc4[nH]nc(C(=O)N(C)CCO)c4C3)cc12` (stereo not drawn) [Example 49, 5-[6-fluoro-4-(1-hydroxyethyl)-1H-indole-2-carbonyl]-N-(2-hydroxyethyl)-N-methyl-1H,4H,5H,6H,7H-pyrazolo[4,3-c]pyridine-3-carboxamide], the half-maximal effective concentration (EC50) in series [1] (setting [4]) is less than 100 µM. Moreover, in series [2], the IC50 was less than 100 µM. Also, the CC50 at 6 days in series [3] was greater than 100 µM.

Take `CC(O)c1cccc2[nH]c(C(=O)N3CCc4[nH]nc(C(=O)N(C)CCO)c4C3)cc12` (stereo not drawn) [Example 50, N-(2-hydroxyethyl)-5-[4-(1-hydroxyethyl)-1H-indole-2-carbonyl]-N-methyl-1H,4H,5H,6H,7H-pyrazolo[4,3-c]pyridine-3-carboxamide]: the EC50 in series [1] (setting [4]) is less than 100 µM. Moreover, the IC50 in series [2] was less than 100 µM. The CC50 at 6 days in series [3] was greater than 32 µM.

Regarding `CN(CCO)C(=O)c1n[nH]c2c1CN(C(=O)c1cc3c(Cl)c(F)ccc3[nH]1)CC2` [Example 51, 5-(4-chloro-5-fluoro-1H-indole-2-carbonyl)-N-(2-hydroxyethyl)-N-methyl-1H,4H,5H,6H,7H-pyrazolo[4,3-c]pyridine-3-carboxamide], the EC50 in series [1] (setting [4]) is less than 1 µM. Moreover, the 50% inhibitory concentration (IC50) in series [2] was less than 5 µM. In series [3], the CC50 at 6 days is greater than 100 µM.

As to `CN(CCO)C(=O)c1n[nH]c2c1CN(C(=O)c1cc3c(F)c(F)ccc3[nH]1)CC2` [Example 52, 5-(4,5-difluoro-1H-indole-2-carbonyl)-N-(2-hydroxyethyl)-N-methyl-1H,4H,5H,6H,7H-pyrazolo[4,3-c]pyridine-3-carboxamide], the EC50 in series [1] (setting [4]) was less than 1 µM. For the same compound, the IC50 in series [2] is less than 5 µM. Besides, the CC50 at 6 days in series [3] is greater than 100 µM.

In the case of `CN(CCO)C(=O)c1n[nH]c2c1CN(C(=O)c1cc3c(F)ccc(F)c3[nH]1)CC2` [Example 53, 5-(4,7-difluoro-1H-indole-2-carbonyl)-N-(2-hydroxyethyl)-N-methyl-1H,4H,5H,6H,7H-pyrazolo[4,3-c]pyridine-3-carboxamide], the EC50 in series [1] (setting [4]) was less than 1 µM. In addition, the IC50 in series [2] is less than 5 µM. This compound also returned a CC50 at 6 days in series [3] greater than 100 µM.

As for `COCCN(C)C(=O)c1n[nH]c2c1CN(C(=O)c1cc3ccccc3[nH]1)CC2` [Example 54, 5-(1H-indole-2-carbonyl)-N-(2-methoxyethyl)-N-methyl-1H,4H,5H,6H,7H-pyrazolo[4,3-c]pyridine-3-carboxamide], in series [1] (setting [4]), the EC50 was less than 1 µM. In addition, in series [2], the IC50 is less than 5 µM. This compound also came in with a CC50 at 6 days in series [3] greater than 100 µM.

Regarding `Cc1cccc2[nH]c(C(=O)N3CCc4[nH]nc(C(=O)N(C)OCCOP(=O)(N[C@@H](C)C(=O)OC(C)C)Oc5ccccc5)c4C3)cc12` (stereo partly drawn) [Example 55, propan-2-yl (2S)-2-({[2-({N-methyl-1-[5-(4-methyl-1H-indole-2-carbonyl)-1H,4H,5H,6H,7H-pyrazolo[4,3-c]pyridin-3-yl]formamido}oxy)ethoxy](phenoxy)phosphoryl}amino)propanoate], in series [1] (HePAD38, 144 h), the EC50 was less than 1 µM. Further, in series [2], the IC50 is less than 5 µM. In addition, in series [3], the CC50 at 6 days was greater than 32 µM.

For the compound `CC(C)OC(=O)[C@H](C)NP(=O)(OCCON(C)C(=O)c1n[nH]c2c1CN(C(=O)c1cc3c(Cl)cccc3[nH]1)CC2)Oc1ccccc1` (stereo partly drawn) [Example 56, propan-2-yl (2S)-2-({[2-({1-[5-(4-chloro-1H-indole-2-carbonyl)-1H,4H,5H,6H,7H-pyrazolo[4,3-c]pyridin-3-yl]-N-methylformamido}oxy)ethoxy](phenoxy)phosphoryl}amino)propanoate], the EC50 in series [1] (HePAD38, 144 h) is less than 1 µM. In addition, in series [2], the IC50 is less than 5 µM. This compound had a CC50 at 6 days in series [3] greater than 32 µM.
